Measurements from paper PMC6211316, “Synthesis and biological evaluation of 3-arylcoumarin derivatives as potential anti-diabetic agents” (Journal of Enzyme Inhibition and Medicinal Chemistry, 2018).
Where two headings read alike, the source gives them in different places.

Columns and labels:
[1] = DPPH free radical scavenging; settings: mean ± SD (n = 3)
Description: The effect of target compounds and vitamin C to scavenge the DPPH free radical was evaluated with the method described by Villano et al.[43] with slight modifications.
Two millilitres of different concentrations of the sample solution was added to 2.0 ml of DPPH solution (0.04 mg/mL), shaken and allowed to react at room temperature for 30 min. The absorbance value was measured at 517 nm with an ultraviolet-visible spectrophotometer. The blank reference cuvette contained absolute ethanol. All measurements were performed in triplicate. IC50 values were calculated. The percentage of DPPH radical scavenging rate of the target compound is calculated as follows: DPPH free radical scavenging effect (%)=[A0−(A1−A2)]/A0×100% where A0 is the absorbance of 2.0 ml DPPH solution +2.0 ml absolute ethanol; A1 is the absorbance of 2.0 ml DPPH solution +2.0 ml 3-arylcoumarins solution or standard; A2 is the absorbance of 2.0 ml 3-arylcoumarins solution or standard +2.0 ml absolute ethanol.

[2] = hydroxyl radical scavenging; settings: mean ± SD (n = 3), read-out: OH IC50 Value
Description: The ability of the target compounds and vitamin C to scavenge the hydroxyl radical was evaluated with method described by Ismaili et al.[29] with slight modifications. In test tube, 1.0 ml H2O2 solution (0.03%), 1.0 ml FeSO4 solution (2 mmol.L^−1), 1.0 ml salicylic acid solution (10 mmol.L^−1) and 1.0 ml of 3-arylcoumarins and standard water solution with different concentration (0.4–2.0 mg/mL) were mixed. Finally, 1.0 ml H2O2 solution (0.03%) was added to this mixture to start the reaction. Solutions were kept at 37 °C. After 30 min, the absorbance was measured at 510 nm against the reagent blank, where the distilled water was substituted for the H2O2 solution. The percentage of OH scavenging by target compounds and vitamin C was calculated the following equation: OH scavenging effect (%)=[A0−(A1−A2)]/A0×100% where A0 is the absorbance of 1.0 ml distilled water +1.0 ml H2O2 + 1.0 ml FeSO4 + 1.0 ml salicylic acid +1.0 ml H2O2; A1 is the absorbance of 1.0 ml 3-arylcoumarins or standard +1.0 ml H2O2 + 1.0 ml FeSO4 + 1.0 ml salicylic acid +1.0 ml H2O2; A2 is the absorbance of 1.0 ml 3-arylcoumarins or standard +1.0 ml H2O2 + 1.0 ml FeSO4 + 1.0 ml absolute absolute ethanol +1.0 ml H2O2.

[3] = biological target: T1, α-Glucosidase (Saccharomyces cerevisiae, UniProt P53341); assay: biochemical; assay type: biochemical; settings: for α-glucosidase inhibitory activity (in words): in vitro
T1 construct: purchased Sigma Aldrich G0660-750UN
Description: α-Glucosidase (G0660-750UN, Sigma Aldrich) and 4-Nitrophenyl α-D-glucopyranoside (PNPG, Macklin) were dissolved in phosphate buffer (pH 6.8, 100 mM), and the test compounds were dissolved in DMSO solution. The experiment was divided into blank group, control group, sample blank group, and sample group. The reagents were loaded in 96-well plates at the dose of the table (Table 8). The solution was bathed in 37 °C water for 10 min, and then enzyme solution was added. After reaction at 37 °C for 20 min, 70 μL Na2CO3 solution ([…]) was added to stop the reaction. All experiments were run in triplicate. […] Since PNPG can produce glucose and p-Nitrophenol (PNP) under the action of α-glucosidase, PNP has the greatest absorption at 405 nm. The absorbance was determined by the microplate reader, and the inhibition rate of α-glucosidase and the IC50 value of each sample were calculated according to the formula. Inhibition rate %={[(AC−AB)−(AS−ASB)]/(AC−AB)}×100% where AC is the absorbance of control group; AB is the absorbance of blank group; AS is the absorbance of sample group; ASB is the absorbance of sample blank group.

[4] = tested on: AGEs formation; assay: In vitro inhibitory activity of AGEs formation (bovine serum albumin/glucose); assay type: biochemical; settings: mean ± SD (n = 3)
Description: To prepare the AGEs reaction solution, 10 mg/mL of bovine serum albumin in 50 mM PBS (pH 7.4) was added to 0.2 M glucose, and 0.02% sodium azide was added to prevent bacterial growth. The reaction mixture (3.0 ml) was then mixed with various concentrations (0.5–1000 μg/mL) of the target compounds (1.0 ml) dissolved in DMSO. After incubating at 37 °C for 14 d, the fluorescence intensity of AGE was determined by a fluorospectrophotometer (PE, USA) with excitation and emission wavelengths at 350 nm and 420 nm, respectively. All experiments were run in triplicate. Aminoguanidine hydrochloride was used as a reference compound. The inhibition rate of AGEs formation and the IC50 value of each sample were calculated according to the formula. Inhibition rate %={[(AC−AB)−(AS−ASB)]/(AC−AB)}×100% where AC is the absorbance of control group(1.0 ml glucose +1.0 ml bovine serum albumin +1.0 ml sodium azide +1.0 ml DMSO); AB is the absorbance of blank group(1.0 ml PBS +1.0 ml bovine serum albumin +1.0 ml sodium azide +1.0 ml DMSO); AS is the absorbance of sample group (1.0 ml glucose +1.0 ml bovine serum albumin +1.0 ml sodium azide +1.0 ml target compound solution or Aminoguanidine hydrochloride solution); ASB is the absorbance of sample blank group (1.0 ml PBS +1.0 ml bovine serum albumin +1.0 ml sodium azide +1.0 ml target compound solution or Aminoguanidine hydrochloride solution).

T1 sequence (P53341 whole entry): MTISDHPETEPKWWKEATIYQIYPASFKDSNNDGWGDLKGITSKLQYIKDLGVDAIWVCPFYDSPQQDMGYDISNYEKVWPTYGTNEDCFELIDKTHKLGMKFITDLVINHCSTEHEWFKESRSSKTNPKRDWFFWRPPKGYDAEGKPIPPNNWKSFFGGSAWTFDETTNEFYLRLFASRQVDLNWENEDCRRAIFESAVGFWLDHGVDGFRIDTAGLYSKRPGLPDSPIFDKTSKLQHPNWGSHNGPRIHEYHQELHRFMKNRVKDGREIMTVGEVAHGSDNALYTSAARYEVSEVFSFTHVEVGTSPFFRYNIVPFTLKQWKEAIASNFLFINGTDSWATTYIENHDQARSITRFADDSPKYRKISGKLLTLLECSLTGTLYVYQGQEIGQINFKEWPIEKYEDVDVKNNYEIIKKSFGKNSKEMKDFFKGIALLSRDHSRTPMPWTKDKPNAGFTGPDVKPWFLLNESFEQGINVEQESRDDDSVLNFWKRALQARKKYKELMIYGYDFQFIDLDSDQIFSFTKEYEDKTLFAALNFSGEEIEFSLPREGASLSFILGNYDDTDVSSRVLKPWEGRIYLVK

Structure (SMILES)	IC50 [1]	IC50 [2]	IC50 [3]	IC50 [4]	melting point	α-glucosidase inhibitory activity (in words) [3]	IC50 ([3]; mean ± SD (n = 3), read-out: α-Glucosidase inhibitory activity IC50 Value)
O=c1oc2ccccc2cc1-c1ccc(F)cc1 [Compound 7, 3-(4-Fluorophenyl)-coumarin]	> 1000 µM	> 1000 µM	> 1000 µM	> 1000 µM	196.7 to 197.7 °C	–	–
Cc1ccc(-c2cc3cccc(O)c3oc2=O)cc1 [Compound 8, 8-Hydroxy-3-(4-methylphenyl)-coumarin]	> 1000 µM	> 1000 µM	69.6 ± 5.32 µM	31.9 ± 2.02 µM	211.7 to 212.5 °C	–	–
Cc1ccccc1-c1cc2cccc(O)c2oc1=O [Compound 10, 8-Hydroxy-3-(2-methylphenyl)-coumarin]	> 1000 µM	> 1000 µM	> 1000 µM	> 1000 µM	212.7 to 213 °C	–	–
O=c1oc2cc(O)ccc2cc1-c1ccccc1O [Compound 16, 7-Hydroxy-3-(2-hydroxyphenyl)-coumarin]	> 1000 µM	> 1000 µM	10.2 ± 0.75 µM	20.47 ± 0.2 µM	200.3 to 202.3 °C	moderate to excellent inhibitory activity	–
O=c1oc2c(O)cccc2cc1-c1ccc(F)cc1 [Compound 19, 8-Hydroxy-3-(4-fluorophenyl)-coumarin]	39.1 ± 3.83 µM	> 1000 µM	> 1000 µM	34.7 ± 1.84 µM	201.3 to 203.1 °C	–	–
Cc1ccc(C)c(-c2cc3ccc(O)cc3oc2=O)c1 [Compound 20, 7-Hydroxy-3-(2,5-dimethylphenyl)-coumarin]	> 1000 µM	> 1000 µM	> 1000 µM	> 1000 µM	189.1 to 190.6 °C	–	–
Cc1ccc(C)c(-c2cc3cccc(O)c3oc2=O)c1 [Compound 21, 8-Hydroxy-3-(2,5-dimethylphenyl)-coumarin]	> 1000 µM	> 1000 µM	> 1000 µM	213 ± 4.77 µM	183.2 to 187.4 °C	–	–
Cc1ccc(-c2cc3ccc(O)c(O)c3oc2=O)cc1 [Compound 23, 7,8-Dihydroxy-3-(4-methylphenyl)-coumarin]	3.21 ± 0.04 µM	801 ± 41.8 µM	25.5 ± 0.52 µM	75.9 ± 10.7 µM	226.8 to 227.5 °C	–	–
COc1ccc2cc(-c3ccc(O)cc3)c(=O)oc2c1 [Compound 26, 7-Methoxy-3-(4-hydroxyphenyl)-coumarin]	68.7 ± 13.4 µM	> 1000 µM	> 1000 µM	65.9 ± 1.34 µM	209 to 209.8 °C	–	–
COc1ccc2oc(=O)c(-c3ccc(O)cc3)cc2c1 [Compound 27, 6-Methoxy-3-(4-hydroxyphenyl)-coumarin]	42 ± 0.97 µM	> 1000 µM	70.3 ± 2.95 µM	64.5 ± 0.78 µM	195.6 to 197.2 °C	–	–
O=c1oc2cc(O)ccc2cc1-c1ccc(O)c(O)c1 [Compound 29, 7-Hydroxy-3-(3,4-dihydroxyphenyl)-coumarin]	11.85 ± 0.04 µM	982 ± 30 µM	29.9 ± 5.15 µM	7.48 ± 0.59 µM	306 to 307.8 °C	–	–
O=c1oc2c(O)c(O)ccc2cc1-c1ccc(O)cc1 [Compound 30, 7,8-Dihydroxy-3-(4-hydroxyphenyl)-coumarin]	2.18 ± 0.04 µM	697 ± 19.6 µM	–	> 1000 µM	287.5 to 288.9 °C	–	19 ± 1.11 µM
O=c1oc2cc(O)cc(O)c2cc1-c1ccc(F)cc1 [Compound 31, 5,7-Dihydroxy-3-(4-fluorophenyl)-coumarin]	595 ± 11.3 µM	> 1000 µM	19.1 ± 0.26 µM	–	267 to 267.6 °C	–	–
O=c1oc2c(O)c(O)ccc2cc1-c1ccc(F)cc1 [Compound 32, 7,8-Dihydroxy-3-(4-fluorophenyl)-coumarin]	2.06 ± 0.07 µM	970 ± 70.9 µM	> 1000 µM	33.5 ± 1.99 µM	259.8 to 260.7 °C	–	–
Cc1ccc(C)c(-c2cc3ccc(O)c(O)c3oc2=O)c1 [Compound 33, 7,8-Dihydroxy-3-(2,5-dimethylphenyl)-coumarin]	2.98 ± 0.03 µM	903 ± 41.9 µM	> 1000 µM	–	190.3 to 190.5 °C	–	–
COc1ccc(-c2cc3ccc(O)c(O)c3oc2=O)cc1 [Compound 34, 7,8-Dihydroxy-3-(4-methoxyphenyl)-coumarin]	3.66 ± 0.03 µM	> 1000 µM	18.8 ± 1.02 µM	> 1000 µM	234.4 to 235.4 °C	–	–
COc1ccc(-c2cc3cccc(O)c3oc2=O)cc1OC [Compound 38, 8-Hydroxy-3-(3,4-dimethoxyphenyl)-coumarin]	16.3 ± 0.44 µM	> 1000 µM	20.2 ± 0.44 µM	22.3 ± 1.34 µM	162.8 to 163.8 °C	–	–
COc1ccc(-c2cc3cc(O)ccc3oc2=O)cc1OC [Compound 39, 6-Hydroxy-3-(3,4-dimethoxyphenyl)-coumarin]	> 1000 µM	> 1000 µM	13.1 ± 0.57 µM	8.02 ± 0.2 µM	216.1 to 217.9 °C	moderate to excellent inhibitory activity	–
